Assay results reported in patent US20090023744A1, “COMBINATION THERAPY FOR DEPRESSION” (The General Hospital Corporation, priority 2007, published 2009).
“Also recorded” adds a separate entry of the source.

Experiments:
[1] = test system: major depressive disorder (MDD); assay: Clinical case report: treatment of recurrent MDD with buspirone and bupropion; format: in vivo, human; settings: same patient remaining on bupropion 150 SR q.d. alone
Excerpt: A person with a history of recurrent episodes of MDD presented with a recurrence of their MDD in the context of their having been off antidepressant medications. […] At the time of the initiation of this treatment combination, the patient reported depressed mood, irritability, decreased sleep and appetite, and fatigue, as well as reduced interest.

5-HT2C receptor [2] = target: T1, 5-HT2C receptor (Homo sapiens, UniProt P28335); settings: reference [2]; cited from earlier work
T1 sequence (P28335 33-458): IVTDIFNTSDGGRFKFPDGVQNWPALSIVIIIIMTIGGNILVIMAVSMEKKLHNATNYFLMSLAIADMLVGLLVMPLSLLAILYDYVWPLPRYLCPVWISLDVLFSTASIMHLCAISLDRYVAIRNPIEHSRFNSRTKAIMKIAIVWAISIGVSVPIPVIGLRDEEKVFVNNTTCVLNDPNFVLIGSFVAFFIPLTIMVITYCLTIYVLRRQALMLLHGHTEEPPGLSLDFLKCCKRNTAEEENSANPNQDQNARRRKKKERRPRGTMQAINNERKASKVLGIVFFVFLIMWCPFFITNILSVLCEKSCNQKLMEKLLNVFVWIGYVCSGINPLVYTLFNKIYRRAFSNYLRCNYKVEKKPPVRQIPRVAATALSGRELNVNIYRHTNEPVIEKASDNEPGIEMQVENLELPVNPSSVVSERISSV

5-HT2C receptor [3] = target: T1, 5-HT2C receptor; settings: reference [2]; cited from earlier work; remark: listed apart in the source

SMILES | depressive symptoms after discontinuation of buspirone [1] | insomnia after discontinuation of buspirone [1] | 5-HT2C receptor antagonist activity (5-HT2C receptor [2]) | affinity for 5-HT2C receptors (5-HT2C receptor [3])
CC(NC(C)(C)C)C(=O)c1cccc(Cl)c1 (racemic) [bupropion, (±)-1-(3-chlorophenyl)-2-[(1,1-dimethylethyl)amino]-1-propanone] | depressive symptoms quickly returned; also recorded: not sufficient to lead to antidepressant response | improvement of their insomnia | – | –
O=C1CC2(CCCC2)CC(=O)N1CCCCN1CCN(c2ncccn2)CC1 [buspirone, 8-[4-[4-(2-pyrimidinyl)-1-piperazinyl)butyl)-8-azaspiro[4,5]decane-7,9-dione] | – | – | weak | low affinity
